Test results taken from ChEMBL document CHEMBL4321815, “Discovery of an Extremely Potent Thiazine-Based β-Secretase Inhibitor with Reduced Cardiovascular and Liver Toxicity at a Low Projected Human Dose” (J Med Chem, 2019).

What was measured:
Canis familiaris [1] = assay: In vivo inhibition of BACE1 in po dosed Beagle dog assessed as plasma level causing 50% reduction in amyloidbeta42 level in CSF administered as single dose measured after 4 to 49 hrs; format: functional, organism-based; details: Canis lupus familiaris
Homo sapiens [2] = assay: In vivo inhibition of BACE1 in human assessed as reduction in amyloidbeta level at 75 mg administered once daily relative to control; format: functional
Canis familiaris [3] = species: Canis familiaris; assay: animal or person; format: functional, organism-based; details: Canis lupus familiaris, Beagle
Homo sapiens [4] = assay: In vivo inhibition of BACE1 in human assessed as reduction in amyloidbeta level at 40 mg administered once daily relative to control; format: functional

SMILES: C[C@H]1OC[C@]2(c3cc(NC(=O)c4cnc(C(F)F)cn4)ccc3F)N=C(N)SC[C@H]12 [ELENBECESTAT]
- EC50 (Canis familiaris [1]): 0.022 µM
- inhibition (INH) (Homo sapiens [2]): 80%
- EC50 (Canis familiaris [3]): 0.0081 µM

SMILES: CN1C(N)=N[C@](C)(c2cc(NC(=O)c3ccc(F)cn3)ccc2F)CS1(=O)=O [VERUBECESTAT]
- EC50 (Canis familiaris [1]): 0.034 µM
- inhibition (INH) (Homo sapiens [4]): 80%
